From publication PMC2662380 (Journal of medicinal chemistry, 2008) come the findings set out here.

Assay [1] concerns MDA-MB-231 breast cancer cell line. Briefly: induction of cell death, trypan blue exclusion assay. It is filed as cell-based, human. The note with it: for induction of cell death (in words): different concentrations, 48 hours.
Assay [2] concerns caspase-8, PARP. Briefly: Western blot analysis of caspase-8 processing and PARP cleavage. Conditions: MDA-MB-231, within 24 h. (Immunoblotting shows a protein as a band on a membrane.)

For the compound `CN[C@@H](C)C(=O)N[C@H]1Cc2ccccc2[C@H]2CC[C@@H](C(=O)NC(c3ccccc3)c3ccccc3)N2C1=O` [Compound 5], the “induction of cell death (in words)” value in assay [1] was “capable of inducing cell death in a dose-dependent manner”.

As to `CN[C@@H](C)C(=O)N[C@H]1Cc2ccccc2[C@H]2CC[C@@H](C(=O)N[C@@H]3CCCc4ccccc43)N2C1=O` [Compound 6], in assay [1], the “concentration that effectively induces cell death” value is 100 nM and the “induction of cell death (in words)” value is listed as “most effective”. Moreover, the “lowest concentration inducing processing of caspase-8 and cleavage of PARP” value in assay [2] amounted to 100 nM.

With `CN[C@@H](C)C(=O)N[C@H]1Cc2ccccc2[C@H]2CCC[C@@H](C(=O)NC(c3ccccc3)c3ccccc3)N2C1=O` [Compound 8], in assay [1], the “induction of cell death (in words)” value is listed as “least effective”.
